Test results from PubChem BioAssay (NCI).
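Method: 48-hour compound exposure of cells in 96-well plates, five concentrations, linear interpolation of endpoints. GI50 = concentration required for 50% inhibition of growth. TGI denotes the concentration required for complete inhibition of growth.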

What was measured:
Assay in all cases: DTP human tumour cell line panel, 48 h
786-0 renal = tested on: 786-0 renal
A549 NSCLC = tested on: A549 NSCLC
CCRF-CEM leukemia = tested on: CCRF-CEM leukemia
KM12 colon = tested on: KM12 colon
MDA-MB-231 breast = tested on: MDA-MB-231 breast
MOLT-4 leukemia = tested on: MOLT-4 leukemia
NCI-H23 lung = tested on: NCI-H23 lung
OVCAR-4 ovarian = tested on: OVCAR-4 ovarian
RPMI-8226 leukemia = tested on: RPMI-8226 leukemia
RXF 393 renal = tested on: RXF 393 renal

Compound | GI50 (786-0 renal) | TGI (786-0 renal) | GI50 (A549 NSCLC) | TGI (A549 NSCLC) | GI50 (CCRF-CEM leukemia) | TGI (CCRF-CEM leukemia) | GI50 (KM12 colon) | TGI (KM12 colon) | GI50 (MDA-MB-231 breast) | TGI (MDA-MB-231 breast) | GI50 (MOLT-4 leukemia) | TGI (MOLT-4 leukemia) | GI50 (NCI-H23 lung) | TGI (NCI-H23 lung) | GI50 (OVCAR-4 ovarian) | TGI (OVCAR-4 ovarian) | GI50 (RPMI-8226 leukemia) | TGI (RPMI-8226 leukemia) | GI50 (RXF 393 renal) | TGI (RXF 393 renal)
Cc1cc(I)cc(CN(C)CCCN2CCN(C)CC2)c1O | 18.6 µM | > 54.2 µM | 36 µM | > 100 µM | 45.7 µM | > 100 µM | 35.6 µM | > 100 µM | 24.1 µM | > 68.3 µM | 21.7 µM | > 63.8 µM | 82.4 µM | > 100 µM | > 73.1 µM | > 100 µM | 16.1 µM | 45.2 µM | 21.7 µM | > 81.2 µM
CC(=O)c1nc2ccccc2n1CC(=O)c1cccc(Cl)c1 | 0.886 µM | > 41.4 µM | 2.67 µM | > 100 µM | 1.17 µM | > 26.2 µM | 0.779 µM | > 43.4 µM | 1.07 µM | > 100 µM | 0.897 µM | 26.7 µM | 0.522 µM | > 47.5 µM | 0.752 µM | > 100 µM | 0.255 µM | 14.3 µM | 0.264 µM | 0.88 µM
O=C(O)c1cc2ccccc2c2c1C(=O)c1ccccc1-2 | – | > 100 µM | – | > 100 µM | – | > 100 µM | – | > 100 µM | – | > 100 µM | – | > 100 µM | – | > 100 µM | – | > 100 µM | – | > 100 µM | – | > 100 µM
